Assay results taken from PubChem BioAssay (NCI).
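Growth conditions: 96-well plates. Treatment: test compound, 48 hours, 5 concentrations. Analysis: linear interpolation between bracketing concentrations; unreached endpoints set to highest concentration. GI50 marks 50% less growth. TGI is the concentration that stops growth completely.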

Key:
Experiment in all cases: NCI-60 cell line screen, 48 h
[1] = tested on: NCI-H226 lung
[2] = tested on: TK-10 renal
[3] = tested on: CCRF-CEM leukemia
[4] = tested on: HT29 colon
[5] = tested on: A549 NSCLC
[6] = tested on: SK-OV-3 ovarian
[7] = tested on: MOLT-4 leukemia
[8] = tested on: SK-MEL-28 melanoma
[9] = tested on: MDA-MB-231 breast
[10] = tested on: HCC-2998 colon

| SMILES | TGI [1] | TGI [2] | TGI [3] | TGI [4] | TGI [5] | TGI [6] | TGI [7] | TGI [8] | GI50 [1] | GI50 [2] | GI50 [3] | GI50 [4] | GI50 [5] | GI50 [6] | GI50 [7] | GI50 [8] | GI50 [9] | TGI [9] | TGI [10] | GI50 [10] |
| --- | --- | --- | --- | --- | --- | --- | --- | --- | --- | --- | --- | --- | --- | --- | --- | --- | --- | --- | --- | --- |
| CC1=C2CCCC2=C/C(=N/Nc2ccc([N+](=O)[O-])cc2[N+](=O)[O-])CC1 | > 100 µM | > 100 µM | > 100 µM | > 100 µM | > 100 µM | > 100 µM | > 100 µM | > 100 µM | – | – | – | – | – | – | – | – | – | – | – | – |
| Cc1cn2c(/C=C3\C(=O)Nc4ccc(O)cc43)c(-c3ccc(Cl)cc3)nc2s1 | 51 µM | 52.2 µM | > 100 µM | 56.2 µM | > 100 µM | 62.7 µM | 27.1 µM | 28.1 µM | 18.5 µM | 18.7 µM | 29.4 µM | 18.1 µM | 19.1 µM | 25.9 µM | 9.97 µM | 12.2 µM | 14.5 µM | 54.2 µM | – | – |
| CCSc1[nH]c(Nc2nc(-c3ccccc3)n(-c3ccccc3)n2)c(C(N)=O)c1C(N)=O | – | > 10 µM | > 10 µM | > 10 µM | > 10 µM | > 10 µM | > 10 µM | > 10 µM | – | – | – | – | – | – | – | – | – | > 10 µM | > 10 µM | – |
| O=c1[nH]cc(COCCO)c(=O)[nH]1 | > 100 µM | > 100 µM | > 100 µM | > 100 µM | > 100 µM | > 100 µM | > 100 µM | > 100 µM | – | – | – | – | – | – | – | – | – | – | – | – |
| C1CSCCSCCS1 | – | > 100 µM | > 100 µM | > 100 µM | > 100 µM | > 100 µM | > 100 µM | > 100 µM | – | – | – | – | – | – | – | – | – | > 100 µM | > 100 µM | – |
| O=C1c2ccccc2C2(O)c3cc4ccccc4cc3OC12O (configuration not stated) | > 100 µM | > 100 µM | > 100 µM | > 100 µM | > 100 µM | > 100 µM | > 100 µM | > 100 µM | – | – | – | – | – | – | – | – | – | – | > 100 µM | – |
| O=C(NCCCCN=c1cccccc1NCCCCNC(=O)OCc1ccccc1)OCc1ccccc1 | 32.1 µM | 53.9 µM | 47.8 µM | 18.7 µM | 74.6 µM | 45.5 µM | 38.1 µM | 39.6 µM | – | – | – | – | – | – | – | – | – | – | 32.1 µM | – |
| O=C1CC(C[C@H](O)C2CCCCC2O)CC(=O)N1Cc1ccccc1 (some centres not stated) | > 100 µM | > 100 µM | > 100 µM | > 100 µM | > 100 µM | > 100 µM | > 100 µM | > 100 µM | – | – | – | – | – | – | – | – | – | – | > 100 µM | – |
| CCOc1ccc2c(c1)[n+]([O-])c(-c1ccccc1Cl)c(N)[n+]2[O-] | > 100 µM | – | > 100 µM | > 100 µM | > 100 µM | > 100 µM | > 100 µM | > 100 µM | – | – | – | – | – | – | – | – | – | – | – | – |
| O=c1cc2oc3cc(O)c(O)cc3c(-c3ccccc3O)c-2cc1O | > 100 µM | > 100 µM | > 100 µM | > 100 µM | > 100 µM | > 100 µM | > 100 µM | > 100 µM | 14.4 µM | 21.9 µM | 7.29 µM | 44.4 µM | 28.5 µM | 7.65 µM | 14.9 µM | 37.2 µM | 10.2 µM | > 100 µM | – | – |
| O=C(O)CSc1n[nH]c(-c2ccccc2)n1 | > 100 µM | > 100 µM | > 100 µM | > 100 µM | > 100 µM | > 100 µM | > 100 µM | > 100 µM | – | – | – | – | – | – | – | – | – | – | > 100 µM | – |
| CCOc1ccc(N2C(=O)/C(=C/c3ccc(N(CCC#N)CCC#N)cc3)N=C2c2cc([N+](=O)[O-])ccc2Cl)cc1 | > 100 µM | > 100 µM | – | – | > 100 µM | > 100 µM | 13.8 µM | 41.8 µM | – | – | – | – | – | – | – | – | – | – | > 100 µM | – |
| COc1ccc(/C(=N\NC(=O)C(N)=O)C(c2ccc(OC)cc2)C2(O)C(=O)Nc3c(Cl)cccc32)cc1 (configuration not stated) | > 100 µM | > 100 µM | > 100 µM | > 100 µM | > 100 µM | – | > 100 µM | > 100 µM | – | – | – | – | – | – | – | – | – | – | > 100 µM | – |
| CCOC(=O)NC(=O)c1cn(CCOC(=O)NCCCCCCNC(=O)OCCn2cc(C(=O)NC(=O)OCC)c(=O)[nH]c2=O)c(=O)[nH]c1=O | > 100 µM | – | > 100 µM | > 100 µM | > 100 µM | > 100 µM | > 100 µM | > 100 µM | – | – | – | – | – | – | – | – | – | – | > 100 µM | – |
| COC12C=C/C(=C(/C(=O)OCc3ccncc3)C(=O)CCCCCCCCC3(OC)C=C/C(=C(/C(=O)OCc4ccncc4)C(=O)CCCCCCCC1)O3)O2 | – | 3.67 µM | 2.29 µM | 4.79 µM | 2.8 µM | 9.02 µM | 1.85 µM | 1.79 µM | – | 1.6 µM | 0.0515 µM | 0.721 µM | 0.979 µM | 2.03 µM | 0.172 µM | 0.29 µM | 0.686 µM | 6.51 µM | 1.39 µM | 0.683 µM |
| CCCn1c(N)c(C(=O)N/N=C(/C)c2cc3cccc(OC)c3o2)sc1=S | > 100 µM | > 100 µM | > 100 µM | > 100 µM | > 100 µM | > 100 µM | > 100 µM | > 100 µM | 45.2 µM | 28.8 µM | 30.7 µM | 16.4 µM | 12.5 µM | 65.4 µM | 24.2 µM | 49.7 µM | > 100 µM | > 100 µM | – | – |
| CCOC(=O)C(C)(C)Oc1ccc2c(C)c(-c3ccc(Cl)cc3)c(=O)oc2c1 | 80.6 µM | > 100 µM | > 100 µM | 62.7 µM | > 100 µM | – | > 100 µM | > 100 µM | – | – | – | – | – | – | – | – | – | – | > 100 µM | – |
| CCC1C2C=CC(CC2)N1S(=O)(=O)c1ccc(C)cc1 (configuration not stated) | 33.9 µM | – | > 100 µM | 42.1 µM | > 100 µM | 89.6 µM | > 100 µM | – | – | – | – | – | – | – | – | – | – | – | – | – |
| O=C(Nc1cc(Cl)ccc1Cl)c1cc2cccc(Cl)c2oc1=O | – | > 100 µM | > 100 µM | > 100 µM | > 100 µM | > 100 µM | > 100 µM | > 100 µM | – | – | – | – | – | – | – | – | – | – | – | – |
| CC(=O)n1c2c(c(=O)n1-c1ccccc1)S(=O)CCC2 (configuration not stated) | > 100 µM | > 100 µM | 26.4 µM | > 100 µM | > 100 µM | > 100 µM | 6.9 µM | > 100 µM | – | – | – | – | – | – | – | – | – | – | > 100 µM | – |
